# Experimental data from paper PMC12649225, “Machine Learning-Identified Potent Antimicrobial Peptides Against Multidrug-Resistant Bacteria and Skin Infections” (Antibiotics, 2025).
# Residues, ends and D or L forms follow the SMILES beside them.
# Assays:
# A. baumannii RUH875 [1] = experiment: SYTOX Green membrane permeabilization assay; format: cell-based, Acinetobacter baumannii; settings: 1- and 2-fold the LC99.9_2h concentrations; over 90 min; RPMI, 1 μM SYTOX Green
# Procedure: (§1) Control samples were exposed to RPMI only. As a positive control, heat-killed bacteria were incubated at 95 °C for 10 min to induce maximum membrane permeabilization. Fluorescence (excitation: 485 nm, emission: 520 nm) was monitored every minute for 90 min at 37 °C using a […] plate reader (Ortenberg, Germany), with peptides and positive controls added after the third cycle. Background fluorescence (SYTOX Green alone) was subtracted from all values. All assays were performed in triplicate and repeated twice independently.
# S. aureus JAR060131 [2] = experiment: SYTOX Green membrane permeabilization assay; format: cell-based, Staphylococcus aureus; settings: RPMI, 1 μM SYTOX Green; 90 min; 37 °C
# Procedure: as §1
# K. pneumoniae LUH15104 = format: cell-based
# Procedure: (§2) The bacterial strains used in this study included S. aureus JAR060131 [54] and the MDR ESKAPE pathogens Enterococcus faecium LUH15122, S. aureus LUH14616, Klebsiella pneumoniae LUH15104, A. baumannii RUH875 [55], Pseudomonas aeruginosa LUH15103, Enterobacter cloacae LUH15114, and the colistin-resistant Escherichia coli LUH15117. Before each experiment, bacteria from frozen stocks were cultured at 37 °C for 18–24 h on sheep blood agar plates (BioMérieux, Marcy-l’Étoile, France). All strains were then cultured from colonies either in tryptic soy broth (TSB; Oxoid, Basingstoke, UK) for A. baumannii, S. aureus, and E. faecium, or in brain heart infusion broth (BHI; Oxoid) for K. pneumoniae, P. aeruginosa, E. cloacae, and E. coli at 37 °C with shaking at 120 rpm for 18–24 h. Subsequently, bacteria were cultured to mid-logarithmic phase in the media described above at 37 °C with shaking at 120 rpm for 3 h. Bacteria were then washed twice with PBS and diluted to the required inoculum suspension concentration in Roswell Park Memorial Institute (RPMI)-1640 medium containing 20 mM HEPES and L-glutamine but without sodium bicarbonate (Sigma-Aldrich; hereafter referred to as RPMI), based on optical density at 620 nm. RPMI was selected because it supports bacterial growth without impairing AMP activity.
# (§3) Bactericidal activity was assessed as described by de Breij et al.. Briefly, mid-logarithmic phase bacterial cultures were diluted to a final concentration of 1 × 10^7 colony-forming units (CFU)/mL in RPMI. Then, 10 µL was added to a final volume of 100 µL in RPMI (final concentration: 1 × 10^6 CFU/mL). Cultures were exposed to peptides either in RPMI or RPMI supplemented with 50% (v/v) human plasma (hereafter referred to as 50% plasma), obtained from four healthy volunteers after informed consent, frozen after collection, and pooled (Sanquin, Amsterdam, The Netherlands). Assays were performed in duplicate using round-bottom polypropylene microtiter plates (Costar, Arlington, VA, USA) and repeated three times. In the initial screening phase (Table 1, Table 2 and Table S1), peptide solutions of 1, 10, and 100 μM (final concentration) were tested against A. baumannii RUH875 and S. aureus JAR060131 in RPMI and in 50% plasma. After this selection process, two lead candidates, their RI variants, and reference peptides were tested with a final concentration range of 0.12 to 120 µM (two-fold dilutions) in RPMI and in 50% plasma (Table 3). The peptides were also tested against ESKAPE pathogens, with Synthetic Antimicrobial and Antibiofilm Peptide (SAAP)-148 as a reference peptide (Table 4).RPMI or 50% plasma served as no-treatment controls. After 2 and 18 h of incubation at 37 °C with shaking at 120 rpm in a humidified environment, the numbers of viable bacteria were quantified. Bactericidal activity was expressed as the lethal concentration 99.9% (LC99.9), defined as the lowest peptide concentration that killed ≥99.9% of bacteria within 2 h (LC99.9_2h) or 18 h (LC99.9_18h) compared to the initial inoculum.
# S. aureus JAR060131 [3] = format: cell-based
# Procedure: as §2, §3
# E. coli LUH15117 = format: cell-based
# Procedure: as §2, §3
# E. cloacae LUH15114 = format: cell-based; settings: LUH15114, 2 h
# Procedure: as §2, §3
# S. aureus LUH14616 = format: cell-based
# Procedure: as §2, §3
# P. aeruginosa LUH15103 = format: cell-based
# Procedure: as §2, §3
# A. baumannii RUH875 [4] = format: cell-based; settings: RUH875, 18 h
# Procedure: as §2, §3
# E. faecium LUH15122 = format: cell-based
# Procedure: as §2, §3
# MDR ESKAPE pathogens = experiment: Bactericidal activity (LC99.9), statements for the whole panel; format: cell-based; settings: 50% plasma; 2 h; range over the three species
# Procedure: as §2, §3
smiles,measurement,setting,value
CC[C@@H](C)[C@@H](NC(=O)[C@@H](C)NC(=O)[C@@H](CCCCN)NC(=O)[C@@H](CCCCN)NC(=O)[C@@H](Cc1c[nH]c2ccccc12)NC(=O)[C@@H](Cc1c[nH]c2ccccc12)NC(=O)[C@@H](CCCNC(=N)N)NC(=O)[C@@H](CC(C)C)NC(=O)[C@@H](CC(C)C)NC(C)=O)C(=O)N[C@H](CCCCN)C(=O)N[C@@H](C(=O)N[C@H](Cc1c[nH]c2ccccc12)C(=O)N[C@H](CCCNC(=N)N)C(=O)N[C@H](CCCCN)C(N)=O)C(C)C [GDST-038-RI] (HELM PEPTIDE1{[ac].[dL].[dL].[dR].[dW].[dW].[dK].[dK].[dA].[dI].[dK].[dV].[dW].[dR].[dK].[am]}$$$$V2.0; N-terminus and C-terminus assumed),"SYTOX fluorescence intensity, A. baumannii",A. baumannii RUH875 [1],fluorescence levels similar to heat-killed controls
same,"Concentrations causing rapid rise in SYTOX fluorescence, S. aureus",S. aureus JAR060131 [2],1.88 to 3.75 µM
same,LC99.9 K. pneumoniae LUH15104 50% Plasma 2 h,"K. pneumoniae LUH15104; LUH15104, 2 h",15 µM
same,LC99.9 K. pneumoniae LUH15104 RPMI 2 h,"K. pneumoniae LUH15104; LUH15104, 2 h",15 µM
same,LC99.9 K. pneumoniae LUH15104 50% Plasma 18 h,"K. pneumoniae LUH15104; LUH15104, 18 h",3.75 µM
same,LC99.9 K. pneumoniae LUH15104 RPMI 18 h,"K. pneumoniae LUH15104; LUH15104, 18 h",7.5 µM
same,LC99.9 S. aureus JAR060131 50% Plasma 2 h,"S. aureus JAR060131 [3]; JAR060131, 2 h",3.75 µM
same,LC99.9 S. aureus JAR060131 50% Plasma 18 h,"S. aureus JAR060131 [3]; JAR060131, 18 h",3.75 µM
same,LC99.9 E. coli LUH15117 RPMI 2 h,"E. coli LUH15117; LUH15117, 2 h",3.75 µM
same,LC99.9 E. coli LUH15117 RPMI 18 h,"E. coli LUH15117; LUH15117, 18 h",0.94 µM
same,LC99.9 E. cloacae LUH15114 50% Plasma 2 h,E. cloacae LUH15114,60 µM
same,LC99.9 E. cloacae LUH15114 RPMI 2 h,E. cloacae LUH15114,30 µM
same,LC99.9 S. aureus LUH14616 50% Plasma 2 h,"S. aureus LUH14616; LUH14616, 2 h",30 µM
same,LC99.9 S. aureus LUH14616 RPMI 18 h,"S. aureus LUH14616; LUH14616, 18 h",0.47 µM
same,LC99.9 P. aeruginosa LUH15103 50% Plasma 2 h,"P. aeruginosa LUH15103; LUH15103, 2 h",30 µM
same,LC99.9 P. aeruginosa LUH15103 RPMI 2 h,"P. aeruginosa LUH15103; LUH15103, 2 h",15 µM
same,LC99.9 P. aeruginosa LUH15103 50% Plasma 18 h,"P. aeruginosa LUH15103; LUH15103, 18 h",15 µM
same,LC99.9 P. aeruginosa LUH15103 RPMI 18 h,"P. aeruginosa LUH15103; LUH15103, 18 h",7.5 µM
same,LC99.9 A. baumannii RUH875 50% Plasma 18 h,A. baumannii RUH875 [4],0.94 µM
same,LC99.9 E. faecium LUH15122 RPMI 2 h,"E. faecium LUH15122; LUH15122, 2 h",3.75 µM
same,LC99.9 E. faecium LUH15122 50% Plasma 18 h,"E. faecium LUH15122; LUH15122, 18 h",3.75 µM
same,LC99.9 E. faecium LUH15122 RPMI 18 h,"E. faecium LUH15122; LUH15122, 18 h",0.94 µM
same,"Concentrations required for E. cloacae, S. aureus and P. aeruginosa in 50% plasma within 2 h",MDR ESKAPE pathogens,30 to 60 µM
